According to article PMC4103896, “Characterization and Evolutionary Implications of the Triad Asp-Xxx-Glu in Group II Phosphopantetheinyl Transferases” (PLoS ONE, 2014):

Tests used:
Type in all cases: biochemical
[1] = target: T1, SchPPT (Streptomyces chattanoogensis, UniProt H9N836); experiment: in vitro phosphopantetheinylation of scn ACP0-2, LC-MS; details: 2 mM CoA, 200 uM scn ACP0-2, 20 uM PPTase, 1.25 mM MgCl2, pH 7.5, 25 °C, 30 min
T1 construct: full-length group II (Sfp-type) PPTase; SchPPT cloned in pET28a (pHJ0024), E. coli; N-terminal His6 stated for the mutants
T1 sequence (H9N836 entry or part of it): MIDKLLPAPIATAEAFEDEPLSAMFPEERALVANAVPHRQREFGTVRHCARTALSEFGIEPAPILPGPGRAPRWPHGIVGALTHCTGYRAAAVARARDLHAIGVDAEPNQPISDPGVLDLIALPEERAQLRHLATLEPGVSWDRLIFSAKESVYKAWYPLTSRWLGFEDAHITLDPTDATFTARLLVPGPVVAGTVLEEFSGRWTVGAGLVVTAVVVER

[2] = target: T2, Sppt (Synechocystis sp. PCC 6803, UniProt Q55185); experiment: in vitro phosphopantetheinylation of sch FAS ACP, HPLC; details: 2 mM CoA, 200 uM sch FAS ACP, 20 uM Sppt, 1.25 mM MgCl2, pH 7.5, 25 °C, 30 min
T2 construct: gene slr0495; full-length
T2 sequence (Q55185 whole entry): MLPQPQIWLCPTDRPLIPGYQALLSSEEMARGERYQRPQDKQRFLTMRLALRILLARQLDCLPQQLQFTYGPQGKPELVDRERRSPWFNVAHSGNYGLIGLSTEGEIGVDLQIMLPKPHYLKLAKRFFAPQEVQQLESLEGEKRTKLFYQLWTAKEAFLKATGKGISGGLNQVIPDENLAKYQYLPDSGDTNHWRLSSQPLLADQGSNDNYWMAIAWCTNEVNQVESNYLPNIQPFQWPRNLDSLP

[3] = target: T3, Sppt (Synechocystis sp. PCC 6803, UniProt Q55185, Q112E); experiment: as above; details: 2 mM CoA, 200 uM sch FAS ACP, 20 uM Sppt, 1.25 mM MgCl2, pH 7.5, 25 °C, 30 min
T3 construct: gene slr0495; full-length
T3 sequence (Q55185 whole entry Q112E): as the sequence (Q55185 whole entry) above, with Q112E counted along it

With `CC(C)(COP(=O)(O)OP(=O)(O)OC[C@H]1O[C@@H](n2cnc3c(N)ncnc32)[C@H](O)[C@@H]1OP(=O)(O)O)[C@@H](O)C(=O)NCCC(=O)NCCS` [CoA] the “in vitro phosphopantetheinylation of scn ACP0-2, LC-MS” value [1] was “only wild type SchPPT but neither of the two mutants phosphopantetheinylated scn ACP0-2”, the “in vitro phosphopantetheinylation of sch FAS ACP, HPLC” value [2] was “After incubation of sch FAS ACP with CoA in the presence of Sppt” and the “in vitro phosphopantetheinylation of sch FAS ACP, HPLC” value [3] was “After incubation of sch FAS ACP with CoA in the presence of SpptQ112E”.
